The numbers were not newly measured in patent US20240033213A1, “TOPICAL PHARMACEUTICAL FORMULATION AND METHOD FOR THE TREATMENT OF SYNDROMES ASSOCIATED WITH CHRONIC PELVIC PAIN” (CURALEAF INTERNATIONAL LIMITED, priority 2020, published 2024), which cites them from elsewhere.

For this data set, the target named is T1, TRPV1 receptor (Rattus norvegicus, UniProt O35433).
T1 construct: CBD Effects on TRPV1 Signaling Pathways in Cultured DRG Neurons; host or cells: cultured DRG sensory neurons (endogenous TRPV1)
The conditions noted are these: sensory neurons in an animal model, in vitro.

T1 sequence (O35433 whole entry): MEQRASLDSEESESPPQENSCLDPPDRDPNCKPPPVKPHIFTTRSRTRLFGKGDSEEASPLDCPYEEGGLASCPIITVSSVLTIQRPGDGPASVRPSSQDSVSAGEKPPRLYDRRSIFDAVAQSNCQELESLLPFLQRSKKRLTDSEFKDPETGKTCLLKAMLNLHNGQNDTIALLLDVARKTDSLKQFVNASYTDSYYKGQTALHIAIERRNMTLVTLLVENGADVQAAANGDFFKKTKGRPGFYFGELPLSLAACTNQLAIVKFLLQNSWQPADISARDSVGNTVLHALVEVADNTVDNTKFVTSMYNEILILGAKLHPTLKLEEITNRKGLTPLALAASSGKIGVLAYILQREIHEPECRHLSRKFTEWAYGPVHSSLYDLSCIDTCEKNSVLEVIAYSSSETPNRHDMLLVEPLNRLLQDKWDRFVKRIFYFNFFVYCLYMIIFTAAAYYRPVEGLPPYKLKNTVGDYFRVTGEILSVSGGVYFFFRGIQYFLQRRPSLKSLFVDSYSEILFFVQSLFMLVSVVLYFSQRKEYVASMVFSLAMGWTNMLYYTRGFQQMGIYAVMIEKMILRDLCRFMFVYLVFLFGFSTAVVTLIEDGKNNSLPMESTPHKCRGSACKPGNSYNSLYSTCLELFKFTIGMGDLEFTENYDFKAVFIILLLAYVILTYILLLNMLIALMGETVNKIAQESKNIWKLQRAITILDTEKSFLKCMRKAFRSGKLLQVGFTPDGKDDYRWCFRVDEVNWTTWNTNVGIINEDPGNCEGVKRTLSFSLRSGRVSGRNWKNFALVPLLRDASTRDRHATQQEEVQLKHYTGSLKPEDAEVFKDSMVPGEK

Turning to `C=C(C)[C@@H]1CCC(C)=C[C@H]1c1c(O)cc(CCCCC)cc1O` [cannabidiol], the “Effect on neuronal hypersensitivity following TRPV1 activation” value was “inhibit neuronal hypersensitivity following TRPV1 activation”.
